According to PubChem BioAssay AID1963961 (Molecular Pharmacology Branch, DTP, NCI, 2024):

Tested on: K98450-129-R-PDC multicell spheroids, viability
Assay: Anticancer human tumor K98450-129-R-PDC patient-derived colon adenocarcinoma cell line growth inhibition [PI3K]
Details: for IC50: curve of first compound; for viability, T/C: stronger effect = lower value
Source text: Combinatorial screen of targeted agents with the PI3K inhibitors inavolisib, alpelisib, duvelisib, and copanlisib in multi-cell type tumor spheroids
A high-throughput screen of multi-cell type tumor spheroids was designed to identify active combinations of targeted small molecules and PI3K pathway inhibitors. Complex spheroids include a stromal component modeled by human endothelial cells (HUVEC) and fibroblasts modeled by human mesenchymal stem cells (MSCs). The concentration ranges selected for each drug and investigational agent were based upon clinically achievable concentrations if the clinical Cmax of the agent was known.
Compounds. The drugs and investigational agents: inavolisib (NSC800729), alpelisib (NSC765974), duvelisib (NSC772469), copanlisib (NSC816437), ipatasertib (NSC767898), afuresertib (NSC778305), talazoparib (NSC767125), sapanisertib (NSC764658), selumetinib (NSC741078), tovorafenib (DAY101, NSC766906), vemurafenib (NSC761431), ravoxertinib (NSC781343), sotorasib (NSC818433), MRTX1133 (NSC 836407), abemaciclib (NSC 768073), palbociclib (NSC758247), venetoclax (NSC 766270), SY5609 (NSC837396), enzalutamide (NSC755605), and darolutamide (NSC825331), were obtained from the National Cancer Institute (NCI) Developmental Therapeutics Program Chemical Repository. The FDA-approved anticancer drug set is available from the NCI Developmental Therapeutics Program. […] The stock solutions were prepared in dimethyl sulfoxide (DMSO, Sigma-Aldrich, St. Louis, MO, cat. D2650) at 800-fold the tested concentration and stored at -70 degrees C prior to their use. All drugs and investigational agents were tested over a range starting from a high concentration at or near the clinical Cmax and decreasing in half-log increments. If the clinical Cmax for an agent had not been determined, the highest concentration tested was 10 microM.
Cell Culture. All cells were maintained in an incubator at 37 degrees C and 5% CO2 with 95% humidity. The PDC lines were cultured according to standard operating procedures established by the NCI PDMR (https://pdmr.cancer.gov/sops/default.htm). All PDCs were thawed and cultured in Matrigel-coated flasks prepared with a working solution of 1X Ham's F-12 nutrient mix, without supplementation (Invitrogen, Waltham, MA, cat. 11765054), 100 U/mL penicillin-streptomycin (Invitrogen, cat. 15140122), and 2.5% Matrigel (Corning Inc., Corning, NY, cat. 354248) for the first three passages. The 354836-022-R-J1-PDC, 475296-252-R-J1-PDC, and 997726-040-R-J2-PDC lines were cultured in 6A media, which includes advanced DMEM/F-12 (Thermo Fisher Scientific, cat. 12634028), 10 mM HEPES (Thermo Fisher Scientific, cat. 15630080), 1X GlutaMAX supplement (Thermo Fisher Scientific, cat. 35050061), 0.1 mg/mL primocin (InvivoGen, San Diego, CA, cat. ant-pm-2), 10% defined fetal bovine serum, heat inactivated (HyClone Laboratories Inc., Logan, UT, cat. SH30070.03HI), 50% L-WRN conditioned media (ATCC, cat. CRL-3276), 1.25 mM N-Acetyl-L-cysteine (Sigma-Aldrich, cat. A9165), 10 mM nicotinamide (Sigma-Aldrich, cat. N0636), 1X B-27 supplement (Thermo Fisher Scientific, cat. 17504044), 1X N-2 supplement (Thermo Fisher Scientific, cat. 17502048), and 10 microM Y-27632 dihydrochloride (Tocris Bioscience, Bristol, United Kingdom, cat. 1254). The 624824-186-R-J2-PDC line was cultured in 6C/Colon 1B media, which includes all 6A media components plus 50 ng/mL human EGF recombinant protein (Thermo Fisher Scientific, cat. PHG0311). […]

[1] = second compound 0.00316 µM, first compound 0.0316 µM
[2] = second compound 0.00316 µM, first compound 0.1 µM
[3] = second compound 0.00316 µM, first compound 0.316 µM
[4] = second compound 0.00316 µM, first compound 1 µM
[5] = second compound 0.00316 µM, first compound 3.16 µM
[6] = second compound 0.00316 µM, first compound 10 µM
[7] = second compound 0.01 µM, first compound 0.0316 µM
[8] = second compound 0.01 µM, first compound 0.1 µM
[9] = second compound 0.01 µM, first compound 0.316 µM
[10] = second compound 0.01 µM, first compound 1 µM
[11] = second compound 0.01 µM, first compound 3.16 µM
[12] = second compound 0.01 µM, first compound 10 µM
[13] = second compound 0.0316 µM, first compound 0.0316 µM
[14] = second compound 0.0316 µM, first compound 0.1 µM
[15] = second compound 0.0316 µM, first compound 0.316 µM
[16] = second compound 0.0316 µM, first compound 1 µM
[17] = second compound 0.0316 µM, first compound 3.16 µM
[18] = second compound 0.0316 µM, first compound 10 µM
[19] = second compound 0.1 µM, first compound 0.0316 µM
[20] = second compound 0.1 µM, first compound 0.1 µM
[21] = second compound 0.1 µM, first compound 0.316 µM
[22] = second compound 0.1 µM, first compound 1 µM
[23] = second compound 0.1 µM, first compound 3.16 µM
[24] = second compound 0.1 µM, first compound 10 µM
[25] = second compound 0.316 µM, first compound 0.0316 µM
[26] = second compound 0.316 µM, first compound 0.1 µM
[27] = second compound 0.316 µM, first compound 0.316 µM
[28] = second compound 0.316 µM, first compound 1 µM
[29] = second compound 0.316 µM, first compound 3.16 µM
[30] = second compound 0.316 µM, first compound 10 µM
[31] = second compound 1 µM, first compound 0.0316 µM
[32] = second compound 1 µM, first compound 0.1 µM
[33] = second compound 1 µM, first compound 0.316 µM
[34] = second compound 1 µM, first compound 1 µM
[35] = second compound 1 µM, first compound 3.16 µM
[36] = second compound 1 µM, first compound 10 µM
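Further: spheroids exposed to agents for seven days before read-out.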

In the case of Cn1nccc1Nc1nccc(-c2ccn(C(CO)c3ccc(Cl)c(F)c3)c(=O)c2)n1 (stereo unspecified) + COc1c(OCCCN2CCOCC2)ccc2c3n(c(=NC(=O)c4cnc(N)nc4)nc12)CCN3, the IC50 (second compound 0.00316 µM) is reported as > 10 µM, the IC50 (second compound 0.01 µM) is reported as > 10 µM and the IC50 (second compound 0.0316 µM) is reported as > 10 µM. It also gave an IC50 (second compound 0.1 µM) of 7.85 µM, an IC50 (second compound 0.316 µM) of 8.33 µM and an IC50 (second compound 1 µM) of 0.272 µM. It also gave a viability, T/C [1] of 101%, a viability, T/C [2] of 97.7% and a viability, T/C [3] of 89.3%. For the same compound, the viability, T/C [4] was 88.5%, the viability, T/C [5] was 93.6% and the viability, T/C [6] was 69.2%. It also gave a viability, T/C [7] of 99.1%, a viability, T/C [8] of 82% and a viability, T/C [9] of 79.7%. The viability, T/C [10] was 79.9%, the viability, T/C [11] was 77.4% and the viability, T/C [12] was 95.5%. It also gave a viability, T/C [13] of 80.7%, a viability, T/C [14] of 88.6% and a viability, T/C [15] of 74.8%. For the same compound, the viability, T/C [16] was 94.6%, the viability, T/C [17] was 77.3% and the viability, T/C [18] was 63.1%. The viability, T/C [19] was 65.6%, the viability, T/C [20] was 74.8% and the viability, T/C [21] was 73.3%. It also gave a viability, T/C [22] of 75.3%, a viability, T/C [23] of 70.2% and a viability, T/C [24] of 44.5%. It also gave a viability, T/C [25] of 63.2%, a viability, T/C [26] of 53.7% and a viability, T/C [27] of 55.6%. The viability, T/C [28] was 61.9%, the viability, T/C [29] was 59.7% and the viability, T/C [30] was 40.8%. The viability, T/C [31] was 54.7%, the viability, T/C [32] was 61.5% and the viability, T/C [33] was 43.2%. The viability, T/C [34] was 43.9%, the viability, T/C [35] was 33.4% and the viability, T/C [36] was 20.9%.

With CNC(=O)c1ccc(N2C(=S)N(c3ccc(C#N)c(C(F)(F)F)c3)C(=O)C2(C)C)cc1F + Cc1nc(NC(=O)N2CCCC2C(N)=O)sc1-c1ccnc(C(C)(C)C(F)(F)F)c1 the IC50 (second compound 0.0316 µM) was > 10 µM, the IC50 (second compound 0.1 µM) was > 10 µM and the IC50 (second compound 0.316 µM) was > 10 µM. The IC50 (second compound 1 µM) was > 10 µM, the IC50 (second compound 3.16 µM) was > 10 µM and the IC50 (second compound 10 µM) was > 10 µM. It also gave a viability, T/C [13] of 108%, a viability, T/C [14] of 93% and a viability, T/C [15] of 106%. The viability, T/C [16] was 94.2%, the viability, T/C [17] was 109% and the viability, T/C [18] was 111%. The viability, T/C [19] was 111%, the viability, T/C [20] was 92.2% and the viability, T/C [21] was 102%. It also gave a viability, T/C [22] of 89.2%, a viability, T/C [23] of 104% and a viability, T/C [24] of 109%. It also gave a viability, T/C [25] of 97%, a viability, T/C [26] of 96.2% and a viability, T/C [27] of 94.8%. It also gave a viability, T/C [28] of 97.3%, a viability, T/C [29] of 105% and a viability, T/C [30] of 109%. For the same compound, the viability, T/C [31] was 90.5%, the viability, T/C [32] was 91.2% and the viability, T/C [33] was 87.5%. The viability, T/C [34] was 91.4%, the viability, T/C [35] was 101% and the viability, T/C [36] was 99%. For the same compound, the viability, T/C (second compound 3.16 µM, first compound 0.0316 µM) was 81.1%, the viability, T/C (second compound 3.16 µM, first compound 0.1 µM) was 88.2% and the viability, T/C (second compound 3.16 µM, first compound 0.316 µM) was 87.1%. For the same compound, the viability, T/C (second compound 3.16 µM, first compound 1 µM) was 81.8%, the viability, T/C (second compound 3.16 µM, first compound 3.16 µM) was 92% and the viability, T/C (second compound 3.16 µM, first compound 10 µM) was 83.7%. The viability, T/C (second compound 10 µM, first compound 0.0316 µM) was 70.2%, the viability, T/C (second compound 10 µM, first compound 0.1 µM) was 69.2% and the viability, T/C (second compound 10 µM, first compound 0.316 µM) was 74.7%. For the same compound, the viability, T/C (second compound 10 µM, first compound 1 µM) was 71.1%, the viability, T/C (second compound 10 µM, first compound 3.16 µM) was 79% and the viability, T/C (second compound 10 µM, first compound 10 µM) was 73.5%.

In the case of Cn1nccc1Nc1nccc(-c2ccn(C(CO)c3ccc(Cl)c(F)c3)c(=O)c2)n1 (stereo unspecified) + CC(Nc1ccc2c(c1)OCCn1cc(N3C(=O)OCC3C(F)F)nc1-2)C(N)=O, the IC50 (second compound 0.00316 µM) is reported as > 10 µM, the IC50 (second compound 0.01 µM) is reported as > 10 µM and the IC50 (second compound 0.0316 µM) is reported as > 10 µM. For the same compound, the IC50 (second compound 0.1 µM) was > 10 µM, the IC50 (second compound 0.316 µM) was > 10 µM and the IC50 (second compound 1 µM) was > 10 µM. It also gave a viability, T/C [1] of 109%, a viability, T/C [2] of 96.3% and a viability, T/C [3] of 107%. It also gave a viability, T/C [4] of 99.2%, a viability, T/C [5] of 101% and a viability, T/C [6] of 94.2%. It also gave a viability, T/C [7] of 108%, a viability, T/C [8] of 97.5% and a viability, T/C [9] of 99.1%. For the same compound, the viability, T/C [10] was 94.7%, the viability, T/C [11] was 98.8% and the viability, T/C [12] was 88.7%. For the same compound, the viability, T/C [13] was 103%, the viability, T/C [14] was 103% and the viability, T/C [15] was 96.5%. It also gave a viability, T/C [16] of 94.4%, a viability, T/C [17] of 99.2% and a viability, T/C [18] of 91%. For the same compound, the viability, T/C [19] was 95.5%, the viability, T/C [20] was 98.5% and the viability, T/C [21] was 98.2%. The viability, T/C [22] was 93.1%, the viability, T/C [23] was 98.9% and the viability, T/C [24] was 88.7%. It also gave a viability, T/C [25] of 91.5%, a viability, T/C [26] of 90.7% and a viability, T/C [27] of 101%. The viability, T/C [28] was 96.2%, the viability, T/C [29] was 99.4% and the viability, T/C [30] was 87.4%. For the same compound, the viability, T/C [31] was 83.6%, the viability, T/C [32] was 84.4% and the viability, T/C [33] was 91%. For the same compound, the viability, T/C [34] was 87.7%, the viability, T/C [35] was 90.9% and the viability, T/C [36] was 82.2%.
